Measurements from patent US6337348B1, “Oxy-vanadium (iv) complexes having spermicidal activity” (Parker Hughes Institute, priority 1998, dated 2002).

Experiments:
Format in all cases: cell-based
[1] = system: human sperm; assay: Mitochondrial transmembrane potential (JC-1 dye) flow cytometry; conditions: 100 μM, 3 hours, 37° C.
Source text: The loss of ΔΨm, a early marker for apoptosis was quantitated by flow cytometry using the lipophilic cationic dye, 5,5′,6,6′-tetrachloro 1,1′,3,3′-tetraethylbenzimidazolecarbocyanine iodide (JC-1) as described in Cossarizza et al., 1993, BBRC 197:40-45. This dye accumulates in the mitochondrial matrix under the influence of the ΔΨm. The molecule is able to selectively enter into mitochondria, the monomeric form emitting at 527 nm after excitation at 490 nm. However, depending on the membrane potential, JC-1is able to form J-aggregates that are associated with a large shift in emission (590 nm). The color of the dye changes reversibly from green to greenish orange at ΔΨm becomes more polarized.
To quantitate changes in sperm ΔΨm following oxovanadium (IV) complex exposure, highly motile fraction of sperm (10^7/ml) in duplicate aliquots, were incubated at 37° C. for 3 hours in BWW−0.3% BSA medium in the presence and absence of 100 μM each of the vanadocene complexes, VO(phen), VO(phen)2, VO(Me2—phen), VO(Me2—phen)2, VO(Cl—phen), VO(Cl—phen)2, VO(bipy), VO(bipy)2, VO(Me2—bipy), VO(Me2—bipy)2, and VO(Br,OH—acph)2. Following incubation, 10 μg/ml JC-1 (Molecular Probes, Eugene, Oreg.) was added from a stock solution in DMSO (1 mg/ml) to the sperm suspension and incubated for an additional 10 minutes. At the end of the incubation period, sperm were washed in Tyrode's salt solution (Sigma), resuspended in 200 μl, and analyzed by flow cytometry for JC-1-specific fluorescence. The excitation was at 488 nm; the emissions for green and red/orange fluorescence were 530 nm and 575 nm respectively. JC-1 monomer and aggregated fluorescence were simultaneously measured in oxovanadium (IV) complex-exposed and control sperm. The percentages of sperm positive for green, orange, and greenish orange were determined using the cutoff signals for JC-1 labeled motile sperm.

[2] = system: human sperm; assay: DNA fragmentation by in situ nick-end labeling (TUNEL) flow cytometry; conditions: 100 μM, 24 hours, 37° C.
Description: A flow cytometric two-color terminal deoxynucleotidyl transferase (TdT) assay was employed to detect apoptotic sperm nuclei by TdT-mediated dUTP nick-end labeling (TUNEL, as described in Gavrieli et al., 1992, J. Cell Biol., 119:493-501). The comparative effect of the oxovanadium (IV) complexes, VO(phen), VO(phen)2, VO(Me2—phen), VO(Me2—phen)2, VO(Cl—phen), VO(Cl—phen)2, VO(bipy), VO(bipy)2, VO(Me2—bipy), VO(Me2—bipy)2, and VO(Br,OH—acph)2, to induce apoptosis was tested by incubating 1 ml duplicate aliquots of motile sperm (10^7/ml) in BWW−0.3% BSA at 37° C. for 24 hours with and without 100 μM each of the test compounds. Sperm were washed in phosphate-buffered saline (PBS)−1% BSA, fixed in 4% paraformaldehyde in PBS for 15 minutes. Following two washings in PBS, they were permeabilized with 0.1% Triton X-100 in 0.1% sodium citrate for 2 minutes on ice, and washed twice with PBS. New 3′-hydroxyl (3′—OH) end labeling of fragmented sperm nuclear DNA was performed using TdT and detected by fluorescein (FITC)-conjugated uridine triphosphate (dUTP) according to the manufacturer's recommendations (Boehringer-Mannheim, Indianapolis, Ind.). Sperm aliquots incubated without TdT enzyme served as a negative control. […] Oxovanadium (IV)-induced apopotosis of sperm was shown by an increase in the number of cells staining with FITC- dUTP (M2 gates). The M1 and M2 gates were used to demarcate non-apoptotic and apoptotic PI-counterstained sperm populations, respectively. Two separate experiments were performed to assess dUTP incorporation following exposure of sperm to oxovanadium (IV) complexes.

[3] = system: human sperm; assay: Kinetics of sperm immobilization (timed CASA); conditions: for T½ of sperm immobilization (time for 50% motility loss): 200 μM, 37° C.
Description: To test the effect of duration of incubation on sperm immobilization in the presence of oxovanadium (IV) complexes, a motile fraction of sperm 10^7/ml) was incubated at 37° C. in 1 ml of BWW−0.3% BSA in the presence of 200 μM each of the complexes or 0.2% DMSO alone. At timed intervals (every 5 and 10 minutes) aliquots (4 μl) were transferred to two 20 μm Microcell (Conception Technologies) chambers, and sperm motility was assessed by CASA.
For CASA, 4 μl each of sperm suspension was loaded into two 20 μm Microcell chambers placed onto a counting chamber at 37° C. At least 5-8 fields per chamber were scanned for analysis using a Hamilton Thorne Integrated Visual Optical System (IVOS) version 10 instrument (Hamilton Thorne Research Inc., Danvers, Mass.). Each field was recorded for 30 seconds. The Hamilton Thorne computer calibrations were set at 30 frames at a frame rate of 30 images/seconds. Other settings were as follows: minimum contrast 8; minimum size 6; low-size gate, 1.0; high-size gate,2.9; low-intensity gate, 0.6; high-intensity gate, 1.4; phase-contrast illumination; low path velocity at 10 μm/seconds and threshold straightness at 80%; magnification factor, 1.95. The performance of the analyzer was periodically checked using the playback function.

Row | Compound | JC-1 aggregate-positive sperm (%) [1] [%] | TUNEL positive sperm (%) [2] [%] | time of exposure to complete sperm motility loss [3] [min] | T½ of sperm immobilization (time for 50% motility loss) [3] [min] | TUNEL positive sperm (%) ([2]; listed as VO(Cl—phen)2)
1 | (diaqua)(4,4′-dimethyl-2,2′-bipyridyl)oxovanadium (IV) sulfate [VO(Me2-bipy)] | 88 | 45 |  |  | 
2 | (aqua)bis(4,4′-dimethyl-2,2′-bipyridyl)oxovanadium (IV) sulfate [VO(Me2-bipy)2] | 62 | 63 |  |  | 
3 | O.O.O=S(=O)([O-])[O-].[O]=[V+2].c1cnc2c(c1)ccc1cccnc12 [VO(phen), (diaqua)(1,10-phenanthroline)oxovanadium (IV) sulfate] | 35 | 98 |  |  | 
4 | O.O=S(=O)([O-])[O-].[O-2].[V+4].c1ccc(-c2ccccn2)nc1.c1ccc(-c2ccccn2)nc1 [VO(bipy)2, (aqua)bis(2,2′-bipyridyl)oxovanadium (IV) sulfate] | 94 | 40 |  |  | 
5 | Clc1cc2cccnc2c2ncccc12.Clc1cc2cccnc2c2ncccc12.O.O=S(=O)([O-])[O-].[O]=[V+2] [VO(Cl-phen)2, (aqua)bis(5-chloro-1,10-phenanthroline)oxovanadium (IV) sulfate] | 35 | 97 | ≤ 10 | 7.3 | Greater than 97%
6 | Clc1cc2cccnc2c2ncccc12.O.O.O=S(=O)([O-])[O-].[O]=[V+2] [VO(Cl-phen), (diaqua)(5-chloro-1,10-phenanthroline)oxovanadium (IV) sulfate] | 39 | 95 |  |  | 
7 | O.O=S(=O)([O-])[O-].[O]=[V+2].c1cnc2c(c1)ccc1cccnc12.c1cnc2c(c1)ccc1cccnc12 [VO(phen)2, (aqua)bis(1,10-phenanthroline)oxovanadium (IV) sulfate] | 25 | 98 |  |  | 
8 | Cc1ccnc2c1ccc1c(C)ccnc12.O.O.O=S(=O)([O-])[O-].[O]=[V+2] [VO(Me2-phen), (diaqua)(4,7-dimethyl-1,10-phenanthroline)oxovanadium (IV) sulfate] | 38 | 97 |  |  | 
9 | bis(5′-bromo-2′-hydroxyacetophenone)oxovanadium (IV) [VO(Br,OH-acph)2] | 83 | 98 | ≤ 2 | 0.633 | 
10 | O.O.O=S(=O)([O-])[O-].[O]=[V+2].c1ccc(-c2ccccn2)nc1 [VO(bipy), (diaqua)(2,2′-bipyridyl)oxovanadium (IV) sulfate] | 95 | 43 |  |  | 
11 | Cc1ccnc2c1ccc1c(C)ccnc12.Cc1ccnc2c1ccc1c(C)ccnc12.O.O=S(=O)([O-])[O-].[O-2].[V+4] [VO(Me2-phen)2, (aqua)bis(4,7-dimethyl-1,10-phenanthroline)oxovanadium (IV) sulfate] | 63 | 94 |  |  | 
